Test results as given in ChEMBL document CHEMBL1201862, “PubChem BioAssay data set” (2004).
Activity calls are given as the source filed them.

Tests used:
[1] = human group III sPLA2 inhibitors, dose response, biochemical, QFRET, IC50 (AID 743457);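 note: green fluorescence rise as the enzyme cleaves BODIPY PC-A2 in liposomes; potency for inhibition of the enzyme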
[2] = HeLa cell cytotoxicity, dose response, cytotoxicity control for MgcRacGAP inhibitor project (AID 624300); format: functional
[3] = target: T1, Rac GTPase-activating protein 1 (Homo sapiens, UniProt Q9H0H5); test: MgcRacGAP GTPase-activating activity inhibitors, confirmation, biochemical, ADP Hunter fluorescence, primary and confirmatory (AID 624330); format: functional
T1 sequence (Q9H0H5 whole entry): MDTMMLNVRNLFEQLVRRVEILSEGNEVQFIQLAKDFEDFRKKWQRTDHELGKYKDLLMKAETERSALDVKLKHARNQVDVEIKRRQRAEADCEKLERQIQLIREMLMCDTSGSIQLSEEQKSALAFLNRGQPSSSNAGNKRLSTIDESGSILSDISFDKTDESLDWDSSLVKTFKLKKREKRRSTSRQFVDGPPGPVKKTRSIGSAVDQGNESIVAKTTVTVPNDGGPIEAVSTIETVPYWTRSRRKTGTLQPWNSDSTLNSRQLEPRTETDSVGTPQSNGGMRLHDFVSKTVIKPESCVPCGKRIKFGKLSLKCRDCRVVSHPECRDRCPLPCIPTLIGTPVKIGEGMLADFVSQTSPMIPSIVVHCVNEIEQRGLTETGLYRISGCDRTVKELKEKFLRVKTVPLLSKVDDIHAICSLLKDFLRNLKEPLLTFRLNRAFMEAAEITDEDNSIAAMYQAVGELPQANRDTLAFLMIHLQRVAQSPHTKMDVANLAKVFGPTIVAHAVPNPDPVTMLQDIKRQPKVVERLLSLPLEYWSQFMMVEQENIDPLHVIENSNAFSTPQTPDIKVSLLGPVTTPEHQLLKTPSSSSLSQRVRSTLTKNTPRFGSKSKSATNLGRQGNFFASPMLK

[4] = AlphaScreen signal interference compounds, dose response, artefact control for ARNT-TACC3 interaction inhibitor project, biochemical, luminescence, cherry-pick (AID 651705); format: functional;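 note: AlphaScreen bead proximity signal that flags compounds interfering with the detection technology; potency reflects signal decrease which marks the compound as an assay artifact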
[5] = target: T2, Histone-lysine N-methyltransferase NSD2 (Homo sapiens, UniProt O96028); format: biochemical
T2 sequence (O96028 whole entry): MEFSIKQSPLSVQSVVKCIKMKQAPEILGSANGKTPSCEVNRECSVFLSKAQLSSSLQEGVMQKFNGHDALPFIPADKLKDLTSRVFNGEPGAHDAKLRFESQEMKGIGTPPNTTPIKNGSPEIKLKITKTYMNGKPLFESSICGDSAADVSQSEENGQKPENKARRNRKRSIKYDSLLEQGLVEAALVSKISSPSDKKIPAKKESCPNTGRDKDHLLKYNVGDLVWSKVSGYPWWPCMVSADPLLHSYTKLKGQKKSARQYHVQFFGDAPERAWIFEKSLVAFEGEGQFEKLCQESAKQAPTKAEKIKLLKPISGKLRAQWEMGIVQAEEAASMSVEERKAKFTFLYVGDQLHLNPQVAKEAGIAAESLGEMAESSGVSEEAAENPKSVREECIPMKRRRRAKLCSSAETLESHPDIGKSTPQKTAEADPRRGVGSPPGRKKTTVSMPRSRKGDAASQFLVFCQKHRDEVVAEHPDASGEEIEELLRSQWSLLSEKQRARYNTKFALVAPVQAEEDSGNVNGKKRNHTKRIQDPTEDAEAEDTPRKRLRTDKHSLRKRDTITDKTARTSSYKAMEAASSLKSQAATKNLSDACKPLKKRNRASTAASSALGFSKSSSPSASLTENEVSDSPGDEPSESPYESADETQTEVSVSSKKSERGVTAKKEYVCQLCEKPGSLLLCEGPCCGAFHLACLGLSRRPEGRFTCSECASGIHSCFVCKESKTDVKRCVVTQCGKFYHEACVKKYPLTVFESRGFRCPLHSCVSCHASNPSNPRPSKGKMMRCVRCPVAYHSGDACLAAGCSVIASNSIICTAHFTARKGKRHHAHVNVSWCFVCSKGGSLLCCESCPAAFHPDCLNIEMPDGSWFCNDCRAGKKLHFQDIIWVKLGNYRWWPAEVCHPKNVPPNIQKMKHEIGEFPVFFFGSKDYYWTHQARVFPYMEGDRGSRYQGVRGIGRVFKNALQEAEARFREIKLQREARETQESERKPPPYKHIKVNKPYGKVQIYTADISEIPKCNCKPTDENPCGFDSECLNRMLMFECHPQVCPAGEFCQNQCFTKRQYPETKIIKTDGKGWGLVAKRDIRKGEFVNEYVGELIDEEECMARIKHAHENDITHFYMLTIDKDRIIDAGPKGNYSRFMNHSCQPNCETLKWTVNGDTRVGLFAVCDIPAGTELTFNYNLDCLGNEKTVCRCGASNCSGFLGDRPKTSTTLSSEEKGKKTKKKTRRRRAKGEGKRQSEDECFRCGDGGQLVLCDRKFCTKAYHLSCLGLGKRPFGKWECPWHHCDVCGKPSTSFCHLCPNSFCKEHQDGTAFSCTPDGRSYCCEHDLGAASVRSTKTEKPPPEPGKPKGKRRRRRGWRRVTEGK

[6] = target: T3, Tyrosyl-DNA phosphodiesterase 2 (Homo sapiens, UniProt O95551); test: human TDP2 enzyme inhibitors, dose response, biochemical, epi absorbance, IC50 (AID 743297)
T3 sequence (O95551 whole entry): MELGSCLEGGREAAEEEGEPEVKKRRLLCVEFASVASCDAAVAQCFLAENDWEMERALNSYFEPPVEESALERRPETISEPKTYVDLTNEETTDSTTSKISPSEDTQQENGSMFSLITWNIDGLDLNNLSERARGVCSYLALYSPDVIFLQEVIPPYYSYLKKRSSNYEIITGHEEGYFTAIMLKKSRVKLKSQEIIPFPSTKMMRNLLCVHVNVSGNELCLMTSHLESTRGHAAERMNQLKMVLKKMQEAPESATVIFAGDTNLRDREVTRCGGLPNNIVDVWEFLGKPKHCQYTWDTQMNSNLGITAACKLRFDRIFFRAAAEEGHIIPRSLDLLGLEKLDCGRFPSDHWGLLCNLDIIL

Major prion protein = Major prion protein (Homo sapiens, UniProt P04156); format: functional, cell-based
cells [7] = test: cells
[8] = HepG2 cell cytotoxicity, dose response, cytotoxicity control, ATP luminescence, cherry-pick, activator set 2 (AID 1053143); format: functional, cell-based
Galanin receptor type 3 = Galanin receptor type 3 (Homo sapiens, UniProt O60755); test: Fluorescence-based cell-based primary high throughput dose response assay to identify antagonists of the Galanin Receptor 3 (GalR3).; format: functional
cells [9] = format: functional, cell-based; conditions: HEK-CNG
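Throughout, for EC50: target is galanin receptor GalR3 read with a cAMP biosensor in HEK293 cells.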

For `CCn1c(S)nnc1-c1csc(C(C)C)c1`, the IC50 [1] was > 122 µM (inactive).
For `COc1cc(CCNC2=CC(=O)c3ncccc3C2=O)ccc1O`, the CC50 [2] was 21.3 µM (active), the IC50 [3] was 62.2 µM (active) and the AC50 [4] was 82.2 µM (active). For the same compound, the AC50 [5] was 1.24 µM (active) and the IC50 [6] was 67.8 µM (inactive).
For `Brc1cc(Br)c2nc3c(cc2c1)CCC3`, the IC50 (Major prion protein) was 5.89 µM (active) and the IC50 (cells [7]) was > 138 µM (inactive).
In the case of `Cc1noc(C)c1C(=O)Nc1nc2ccc(F)cc2s1`, the AC50 [8] is reported as > 52 µM (inactive).
With `CSc1ccc(CN2CCN(C(=O)c3ccc([N+](=O)[O-])cc3)CC2)cc1` the IC50 (Galanin receptor type 3) was 1.91 µM (active) and the EC50 (cells [9]) was > 29.9 µM (inactive).
